According to US9375000B2, “Pesticidal arylpyrrolidines” (Bayer Intellectual Property GmbH, priority 2011, dated 2016):
Where two headings read alike, the source gives them in different places.

What was measured:
[1] = tested on: Tobacco Cutworm (Spodoptera litura) Larvae; experiment: Tobacco cutworm (Spodoptera litura) larvae, sweet potato leaf dip test; format: in vivo; settings: dead larvae after 7 days
Protocol: (§1) Unless not mentioned otherwise, the test solutions were prepared as follows:
(§2) Solvent: 3 parts by weight Dimethylformamide
(§3) Emulsifier: 1 part by weight Polyoxyethylene alkyl phenyl ether
(§4) In order to make an appropriate formulation of an active compound, 1 part by weight of the active compound is mixed with the above mentioned amount of solvent and emulsifier and the mixture is diluted with water to a prescribed concentration. Ammonium salt or ammonium salt and penetration enhancer in a dosage of 1000 ppm are added to the desired concentration if necessary.
Leaves of sweet potato were immersed in the test solution at the appropriate concentration, and the leaves were dried in air. The leaves were then placed in a petri dish having a diameter of 9 cm, and ten Spodoptera litura at third instar larvae were released therein. The petri dishes were placed in a temperature-controlled chamber at 25° C. After 2 days and 4 days more sweet potato leaves were added. After 7 days, the number of dead larvae was counted to calculate the insecticidal activity. An insecticidal activity of 100% means that all larvae were killed, whereas an insecticidal activity of 0% means that no larva was killed. In the current test, the results of two petri dishes for each treatment were averaged.

[2] = log P by HPLC on reversed phase columns (EEC directive 79/831 Annex V.A8); format: physicochemical
Protocol: Calibration was done with not branched alkan2-ones (with 3 to 16 carbon atoms) with known log P-values (measurement of log P values using retention times with linear interpolation between successive alkanones). lambda-maX-values were determined using UV-spectra from 200 nm to 400 nm and the peak values of the chromatographic signals.

[3] = tested on: Cucurbit Leaf Beetle (Aulacophora femoralis); experiment: Cucurbit leaf beetle (Aulacophora femoralis) cucumber leaf dip test; format: in vivo; settings: after 7 days
In short: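 Cucumber leaves dipped in compound formulated with DMF and polyoxyethylene alkyl phenyl ether, diluted in water, with ammonium salt or ammonium salt plus penetration enhancer at 1000 ppm added if necessary; dried leaves placed on sterilized soil with five second-instar larvae. Kept at 25° C; larval mortality counted after 7 days.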

[4] = tested on: Two-Spotted Spider Mite (Tetranychus urticae); experiment: Two-spotted spider mite (Tetranychus urticae) spray test on kidney bean; format: in vivo; settings: after 7 days
In short: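 Kidney bean plants at the two-leaf stage carried 50-100 adult mites and were sprayed one day later with compound in DMF/polyoxyethylene alkyl phenyl ether diluted in water. Ammonium salt and penetration enhancer at 1000 ppm were added if needed. Acaricidal activity (% mites killed) was scored after 7 days in a greenhouse.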

[5] = tested on: Musca domestica; experiment: Test against Musca domestica; format: in vivo; settings: application rate 100 ppm; after 2 days
Protocol: (§5) Solvent: dimethyl sulfoxide
To produce a suitable preparation of active compound, 10 mg of active compound are dissolved in 0.5 ml solvent, and the concentrate is diluted with water to the desired concentration. Prior to the assay, a piece of kitchen sponge is soaked with a mixture of sugar and compound solution and placed into a container. 10 adults (Musca domestica) are placed into the container and closed with a perforated lid. After 2 days mortality in % is determined. 100% means that all the flies have been killed; 0% means that none of the flies have been killed.

[6] = tested on: Thrips palmi; experiment: Thrips palmi spray test (THRIPL); format: in vivo; settings: after 6 days
In short: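 Cucumber seedlings sprayed with compound formulated in DMF/polyoxyethylene alkyl phenyl ether and diluted in water, ammonium salt ± penetration enhancer at 1000 ppm added if needed. About 100 T. palmi eggs attached, plants held caged at 100% humidity, 23 °C. Percent activity scored from feeding damage after 6 days, 100 = no damage, 0 = as untreated.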

[7] = tested on: Larvae of Spodoptera litura; experiment: Larvae of Spodoptera litura, method using artificial feeds; format: in vivo; settings: artificial feed, after 7 days
In short: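 Compound formulated in dimethylformamide with polyoxyethylene alkyl phenyl ether emulsifier, water-diluted and poured onto artificial diet. Five 3rd-instar Spodoptera litura larvae per cup, held at 25° C and 50-60% humidity. Mortality after 7 days expressed as pesticidal ratio.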

[8] = tested on: green peach aphids (Myzus persicae); experiment: Myzus persicae spray test (MYZUPE); format: in vivo; settings: after 6 days
Protocol: as §1, §2, §3, §4
1 day before treatment, green peach aphids (Myzus persicae) are inoculated onto the testing plants, about 50 heads per leaf, 100 for 1 pot. A paper label is placed on each pot. Solutions are sprayed directly onto both insects and plants. After drying, the pots are placed in the greenhouse at 20° C.-25° C. After 6 days mortality in % is determined. An insecticidal activity of 100% means that all aphids were killed, whereas an insecticidal activity of 0% means that no aphid was killed.

[9] = tested on: Ctenocephalides felis; experiment: Test against Ctenocephalides felis (CTECFE), blood feeding; format: in vivo; settings: application rate 100 ppm in cattle blood; after 2 days
Protocol: as §5
To produce a suitable preparation of active compound, 10 mg of active compound are dissolved in 0.5 ml solvent, and the concentrate is diluted with cattle blood to the desired concentration. Approximately 20 adult unfed (Ctenocepahlides felis) are placed in flea chambers. The blood chamber, sealed with parafilm on the bottom, are filled with cattle blood supplied with compound solution and placed on top of the flea chamber, so that the fleas are able to suck the blood. The blood chamber is heated to 37° C. whereas the flea chamber is kept at room temperature.
After 2 days mortality in % is determined. 100% means that all the fleas have been killed; 0% means that none of the fleas have been killed.

[10] = tested on: adult engorged female Boophilus microplus ticks; experiment: Test against Boophilus microplus (dip); format: in vivo; settings: application rate 100 ppm; dip; after 7 days
Protocol: as §5
To produce a suitable preparation of active compound, 10 mg of active compound are dissolved in 0.5 ml solvent, and the concentrate is diluted with water to the desired concentration. Eight to ten adult engorged female Boophilus microplus ticks are placed in perforated plastic beakers and immersed in aqueous compound solution for one minute. Ticks are transferred to a filter paper in a plastic tray. Egg deposition of fertile eggs is monitored after. After 7 days mortality in % is determined. 100% means that all the ticks have been killed; 0% means that none of the ticks have been killed.

[11] = active compound concentration 4 ppm
[12] = active compound concentration 20 ppm
[13] = active compound concentration 100 ppm

In the case of O=C(NCc1ccc(N2CCC(c3cc(Cl)cc(Cl)c3)(C(F)(F)F)C2O)cc1F)C1CC1 (mixture of isomers) [A1-99], the insecticidal activity [1, 11] was 100%, the “log P” value [2] was 3.47 and the insecticidal activity [3, 12] was 100%. It also gave an acaricidal activity [4, 11] of 90%.
For O=C(NCc1ccc(N2CCC(c3cc(Cl)c(Cl)c(Cl)c3)(C(F)(F)F)C2O)cc1I)C1CC1 (mixture of isomers) [A1-176], the “activity (mortality)” value [5] was 80%, the “insecticidal activity (by feeding damage degree)” value [6, 12] was 90% and the insecticidal activity [3, 12] was 100%. The acaricidal activity [4, 11] was 100%, the acaricidal activity [4, 12] was 100% and the “insecticidal activity (pesticidal ratio)” value [7, 11] was 100%. For the same compound, the “insecticidal activity (pesticidal ratio)” value [7, 12] was 100%.
In the case of COCCC(=O)NCc1ccc(N2CCC(c3cc(C(F)(F)F)cc(C(F)(F)F)c3)(C(F)(F)F)C2O)nc1Br (mixture of isomers) [A3-162], the insecticidal activity [1, 12] was 100%, the logP [2] was 3.71 and the acaricidal activity [4, 12] was 90%.
In the case of O=C(NCc1ccc(N2CCC(c3cc(F)cc(Cl)c3)(C(F)(F)F)C2O)nc1C(F)(F)F)C1CC1 (mixture of isomers) [A3-170], the “activity (mortality)” value [5] was 90%, the insecticidal activity [1, 11] was 100% and the insecticidal activity [3, 12] was 100%. It also gave an acaricidal activity [4, 12] of 100%.
With O=C(NCc1ccc(N2CCC(c3cc(Cl)c(F)c(Cl)c3F)(C(F)(F)F)C2O)nc1C(F)(F)F)C1CC1 (mixture of isomers) [A3-214] the “insecticidal activity (mortality)” value [8, 12] was 100%, the “insecticidal activity (by feeding damage degree)” value [6, 11] was 90% and the insecticidal activity [3, 11] was 100%. For the same compound, the insecticidal activity [3, 12] was 100%, the acaricidal activity [4, 11] was 100% and the acaricidal activity [4, 12] was 100%. The “insecticidal activity (pesticidal ratio)” value [7, 11] was 100% and the “insecticidal activity (pesticidal ratio)” value [7, 12] was 100%.
In the case of O=C(NCc1ccc(N2CCC(c3cc(Cl)c(Cl)c(Cl)c3)(C(F)(F)F)C2O)cc1Cl)C1CC1 (stereo not shown) [A1-16], the “insecticidal activity (mortality)” value [8, 13] was 100%, the “activity (mortality)” value [5] was 80% and the “activity (mortality)” value [9] was 90%. For the same compound, the “insecticidal activity (by feeding damage degree)” value [6, 13] was 98%, the insecticidal activity [3, 11] was 100% and the acaricidal activity [4, 11] was 100%. The “insecticidal activity (pesticidal ratio)” value [7, 11] was 100%.
With O=C(CC(F)(F)F)NCc1ccc(N2CCC(c3cc(Cl)c(Cl)c(Cl)c3)(C(F)(F)F)C2O)cc1Cl (stereo not shown) [A1-18] the “insecticidal activity (mortality)” value [8, 13] was 100%, the “insecticidal activity (by feeding damage degree)” value [6, 13] was 90% and the insecticidal activity [3, 11] was 100%. The acaricidal activity [4, 11] was 100% and the “insecticidal activity (pesticidal ratio)” value [7, 11] was 100%.
In the case of O=C(NCc1ccc(N2CCC(c3cc(Br)cc(Br)c3)(C(F)(F)F)C2O)cc1C(F)(F)F)C1CC1 (stereo not shown) [A1-253], the “activity (mortality)” value [5] was 90%, the “insecticidal activity (by feeding damage degree)” value [6, 12] was 90% and the insecticidal activity [3, 11] was 100%. It also gave an insecticidal activity [3, 12] of 100%, an acaricidal activity [4, 11] of 100% and an acaricidal activity [4, 12] of 100%. For the same compound, the “insecticidal activity (pesticidal ratio)” value [7, 11] was 100% and the “insecticidal activity (pesticidal ratio)” value [7, 12] was 100%.
For CN(C)C(=O)NCc1ccc(N2CCC(c3cc(Cl)cc(Cl)c3)(C(F)(F)F)C2O)cc1C(F)(F)F (stereo not shown) [A1-368], the “log P” value ([2]; HPLC on reversed phase columns) was 3.81 and the acaricidal activity [4, 13] was 100%.
With CCNC(=O)NCc1ccc(N2CCC(c3cc(Cl)cc(Cl)c3)(C(F)(F)F)C2O)cc1C(F)(F)F (stereo not shown) [A1-369] the insecticidal activity [1, 11] was 100%, the “log P” value ([2]; HPLC on reversed phase columns) was 3.73 and the acaricidal activity [4, 13] was 100%.
In the case of O=C(NCc1ccc(N2CCC(c3cc(Cl)c(Cl)c(Cl)c3)(C(F)(F)F)C2O)nc1Cl)C1CC1 (stereo not shown) [A3-104], the “insecticidal activity (mortality)” value [8, 12] was 100%, the insecticidal activity [1, 11] was 100% and the “insecticidal activity (by feeding damage degree)” value [6, 12] was 98%. It also gave an insecticidal activity [3, 12] of 100% and an acaricidal activity [4, 11] of 100%.
For O=C(NCc1ccc(N2CCC(c3cc(C(F)(F)F)cc(C(F)(F)F)c3)(C(F)(F)F)C2O)nc1Cl)C1CC1 (stereo not shown) [A3-148], the “insecticidal activity (by feeding damage degree)” value [6, 13] was 90%, the logP [2] was 3.96 and the insecticidal activity [3, 11] was 100%. For the same compound, the “insecticidal activity (pesticidal ratio)” value [7, 11] was 100%.
In the case of O=C(NCc1cc(F)c(N2CCC(c3cc(C(F)(F)F)cc(C(F)(F)F)c3)(C(F)(F)F)C2O)nc1Cl)C1CC1 (stereo not shown) [A3-381], the “insecticidal activity (mortality)” value [8, 13] was 98%, the “insecticidal activity (by feeding damage degree)” value [6, 13] was 98% and the “activity (mortality)” value [10] was 80%. For the same compound, the insecticidal activity [3, 11] was 100%, the insecticidal activity [3, 12] was 100% and the “insecticidal activity (pesticidal ratio)” value [7, 12] was 100%.
With CCC(=O)NCc1cnc(N2CCC(c3cc(Cl)c(Cl)c(Cl)c3)(C(F)(F)F)C2O)nc1C(F)(F)F (stereo not shown) [A4-13] the “insecticidal activity (mortality)” value [8, 13] was 90%, the “insecticidal activity (by feeding damage degree)” value [6, 12] was 98% and the “insecticidal activity (by feeding damage degree)” value [6, 13] was 98%. For the same compound, the acaricidal activity [4, 12] was 100% and the “insecticidal activity (pesticidal ratio)” value [7, 12] was 100%.
In the case of CCC(=O)NCc1cnc(N2CCC(c3cc(Cl)c(F)c(Cl)c3)(C(F)(F)F)C2O)nc1C(F)(F)F (stereo not shown) [A4-101], the “insecticidal activity (mortality)” value [8, 12] was 100%, the insecticidal activity [1, 11] was 100% and the “insecticidal activity (by feeding damage degree)” value [6, 12] was 98%. The insecticidal activity [3, 12] was 100% and the acaricidal activity [4, 11] was 100%.
With O=C(NCc1ccc(N2CC(c3cc(C(F)(F)F)cc(C(F)(F)F)c3)(C(F)(F)F)CC2=O)nc1C(F)(F)F)C1CC1 (stereo not shown) [C3-27] the “activity (mortality)” value [5] was 90%, the insecticidal activity [1, 12] was 100% and the “insecticidal activity (pesticidal ratio)” value [7, 12] was 100%.
